Experimental data from the NIST ThermoML archive (doi:10.1016/j.jct.2019.03.023).
Numbers after ± are expanded uncertainties.

Conditions: isochoric method

CC(C)O [propan-2-ol]
mass density [kg/m3]
Conditions	Gas	Liquid
380.35 K	–	697.69 ± 1.4
451.83 K	–	581.06 ± 1.2
507.95 K	–	343.1 ± 2.4
508.16 K	–	329.2 ± 2.8
508.28 K	–	324.5 ± 2.8
508.51 K	234.3 ± 4.5	–
508.68 K	–	293.3 ± 3.2
508.69 K	–	288.99 ± 3.5
508.7 K	255.8 ± 4.6	–
508.71 K	–	281.9 ± 4
508.72 K	266.3 ± 6.1	274 ± 4.6
